Our source for the Kd values is BindingDB's records for doi:10.1074/jbc.M114.553248 (National Taiwan University, 2014).

Assay [1] has as its target Isoform A1-A of Heterogeneous nuclear ribonucleoprotein A1 (A1-A) (Homo sapiens, UniProt P09651). Briefly: Surface Plasmon Resonance (SPR) Assay. Particulars: pH 4. The source says: (§1) Recombinant full-length hnRNPA1 (aa 1-320) and truncated versions of hnRNPA1, including the N-terminal RNA binding domain (aa 1-196), the middle region (aa 182-268), and the C-terminal region (aa 268-320), were individually covalently coupled to a dextran matrix (CM5 chip) using a Biacore T200 system (GE Healthcare), following the manufacturer's protocols. Immobilized proteins were activated with N-hydroxysuccinimide and 1-ethyl-3-(3-dimethylaminopropyl) carbodiimide to form a […] between carboxyl moieties on the dextran and […] on the protein. hnRNPA1 variants were dissolved in 10 mM acetate buffer (full-length, pH 4; N-terminal RNA binding domain and the C-terminal region, pH 4.5; middle region, pH 5) to a concentration of 20 μg/ml and flowed over the activated surface for 5 min with PBS. Unreacted groups were blocked with ethanolamine. PBS containing 0.05% (v/v) P20 (surfactant) and 5% DMSO was used for priming and conditioning the surface of the chips. Quercetin was serially diluted (from 200 to 3 μM) in PBS buffer and maintained in DMSO (5% (v/v)) (final concentrations from 10 to 0.15 μM). The baseline response was determined for 120 s (30 μl/min) before perfusing the immobilized proteins with the compounds to allow association to occur. Dissociation was then monitored over a period of an additional 120 s. […]

Assay [2] has as its target Isoform A1-A of Heterogeneous nuclear ribonucleoprotein A1 (A1-A) 68-320] (Homo sapiens, UniProt P09651). In words: Surface Plasmon Resonance (SPR) Assay. Particulars: pH 4.
Description: as §1

A word on the Kd: it is the constant that tells how readily two partners part at equilibrium. A lower Kd goes with a tighter complex.

Chain of Isoform A1-A of Heterogeneous nuclear ribonucleoprotein A1 (A1-A) (P09651 as listed by the source): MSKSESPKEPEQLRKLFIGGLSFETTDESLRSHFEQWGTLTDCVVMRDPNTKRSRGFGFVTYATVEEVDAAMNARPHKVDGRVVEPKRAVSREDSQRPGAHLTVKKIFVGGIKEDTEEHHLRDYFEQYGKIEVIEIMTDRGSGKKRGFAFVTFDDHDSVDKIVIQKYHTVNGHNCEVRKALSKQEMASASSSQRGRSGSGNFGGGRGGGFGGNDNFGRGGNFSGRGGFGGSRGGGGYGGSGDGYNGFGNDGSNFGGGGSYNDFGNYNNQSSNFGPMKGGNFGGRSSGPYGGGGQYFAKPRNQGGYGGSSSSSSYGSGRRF
Chain of Isoform A1-A of Heterogeneous nuclear ribonucleoprotein A1 (A1-A) 68-320] (P09651 320-372): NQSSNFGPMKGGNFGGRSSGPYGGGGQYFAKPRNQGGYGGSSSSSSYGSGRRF

Take `O=c1c(O)c(-c2ccc(O)c(O)c2)oc2cc(O)cc(O)c12` [2-(3,4-dihydroxyphenyl)-3,5,7-trihydroxy-chromone;hydrate]: the Kd in assay [1] is 8.9 µM; in assay [2], 1.7 µM.
